From patent US20150203807A1, “INACTIVATION OF A […] USING A FATTY ACID” (NOVOZYMES A/S, priority 2012, published 2015)

Test system: Trichoderma reesei microbial host cells
Experiment: Inactivation of the microbial host cells in fermentation broth (growth on agar plates)
Type: cell-based
Conditions: hexanoic acid at 0.09%, 0.28%, 0.46%, 0.65% (w/w) in fermentation broth; pH 4.5; 24 hrs constant stirring at room temperature; samples incubated for 4 days at 30 degrees Celsius
Procedure: The fatty acid is added to the fermentation broth at various concentrations (0.09% (w/w); 0.28% (w/w); 0.46% (w/w); 0.65% (w/w)).
pH is adjusted to 4.5 using an aqueous solution of acetic acid (CAS 64-19-7) and/or aqueous sodium hydroxide (CAS 1310-73-2).
The fermentation broth with the various concentrations of the fatty acid is left at pH 4.5 for 24 hrs with constant stirring at room temperature.
The fermentation broth is tested after 24 hrs and inactivation of the microbial host cells is successful if there is no growth on agar plates—samples are incubated for 4 days at 30 degrees Celsius.
Hexanoic acid (100% sol., CAS 142-62-1) was added to the fermentation broth at various concentrations (0.09% (w/w); 0.28% (w/w); 0.46% (w/w); 0.65% (w/w)).
pH was adjusted to 4.5 using an aqueous solution of acetic acid (CAS 64-19-7) and/or aqueous sodium hydroxide (CAS 1310-73-2).
The fermentation broth with the various concentrations of hexanoic acid was left at pH 4.5 for 24 hrs with constant stirring at room temperature.
After 24 hrs the Trichoderma reesei microbial host cells were inactivated (no growth on agar plates—samples were incubated for 4 days at 30 degrees Celsius).

Structure (SMILES): CCCCCC(=O)O [Hexanoic acid]
- inactivation of Trichoderma reesei microbial host cells (no growth on agar plates): inactivated
